Source: patent US20160075653A1, “NEMATICIDAL N-(PHENYLCYCLOALKYL)CARBOXAMIDES AND N-(PHENYLCYCLOALKYL)THIOCARBOXAMIDES” (BAYER CROPSCIENCE AKTIENGESELLSCHAFT, priority 2013, published 2016)
Read-outs that look alike come from different tables or passages of the source.

Assay: Measurement of log P values by HPLC on reversed phase columns (methods [a] pH 2.3, [b] pH 2.7, [c] pH 7.8)
Assay type: physicochemical
Method: Measurement of log P-Values:
Measurement of log P Values was Performed According EEC Directive 79/831 Annex V.A8 by HPLC (High Performance Liquid
Chromatography) on reversed phase columns with the following methods: ^[a] Measurement was done at pH 2.3 with 0.1% phosphoric acid and acetonitrile as eluent with a linear gradient from 10% acetonitrile to 95% acetonitrile. ^[b] measurement of LC-MS was done at pH 2.7 with 0.1% formic acid in water and with acetonitrile (contains 0.1% formic acid) as eluent with a linear gradient from 10% acetonitrile to 95% acetonitrile. ^[c] Measurement with LC-MS was done at pH 7.8 with 0.001 molar ammonium hydrogen carbonate solution in water as eluent with a linear gradient from 10% acetonitrile to 95% acetonitrile.
Calibration was done with linear alkan-2-ones (with 3 to 16 carbon atoms) with known log P-values (measurement of log P values using retention times with linear interpolation between successive alkanones). Lambda-max-values were determined using UV-spectra from 200 nm to 400 nm and the peak values of the chromatographic signals.

[1] = HPLC reversed phase, method [b] (pH 2.7)
[2] = HPLC on reversed phase columns, method [b], pH 2.7
[3] = HPLC on reversed phase column, method [b], pH 2.7
[4] = HPLC reversed phase, method [c] pH 7.8
[5] = method [b], HPLC reversed phase, pH 2.7
[6] = reversed phase HPLC columns, pH 2.7, HPLC on reversed phase columns, method [b] (pH 2.7), read-out: logP
[7] = HPLC on reversed phase column, method [c], pH 7.8
[8] = method [c], HPLC reversed phase, pH 7.8

In the case of O=C(N[C@@H]1CC[C@@H]1c1c(F)cccc1C(F)(F)F)c1ccc(Cl)cc1 (relative stereo) [Example 536], the logP [1] is reported as 3.72^[b].

For Cc1nc(C(F)(F)F)c(C(=O)NC2CC2c2ccccc2)s1 (centres unmarked) [Example 8], the logP [2] was 2.66^[b].

With O=C(N[C@@H]1CC[C@H]1c1ccc(Cl)cc1Cl)c1cccnc1Cl (relative stereo) [Example 674] the logP [3] was 3.16^[b].

In the case of O=C(N[C@@H]1CC[C@H]1c1ccc(Cl)cc1C(F)(F)F)c1c(F)cccc1F (relative stereo) [Example 701], the logP [3] is reported as 3.75^[b].

For Cc1nc(C)c(C(=O)NC2CCCC2c2ccccc2Cl)s1 (centres unmarked) [Example 291], the logP [1] was 2.73^[b].

With O=C(NC1CCCCC1c1ccccc1Cl)c1ccccc1Cl (centres unmarked) [Example 381] the logP [1] was 3.88^[b].

In the case of O=C(N[C@@H]1CC[C@H]1c1cccc(F)c1C(F)(F)F)c1ncc(C(F)(F)F)cc1Cl (relative stereo) [Example 602], the logP [3] is reported as 4.10^[b].

With O=C(N[C@@H]1CCC[C@@H]1c1ccc(C(F)(F)F)cc1)c1ccccc1Br (relative stereo) [Example 303] the logP [1] was 3.73^[b] and the logP [4] was 3.68^[c];.

For O=C(N[C@H]1CCC1c1ccccc1C(F)(F)F)c1ccccc1Cl (stereo in doubt) [Preparation Example 4, cis-2-chloro-N-{2-[2-(trifluoromethyl)phenyl]cyclobutyl}benzamide], the chromatographic logP (reversed phase HPLC columns, HPLC-MS, method letter not given, read-out: log P) was 3.3.

In the case of O=C(N[C@@H]1C[C@@H]1c1ccc(Cl)cc1Cl)c1ccccc1I (relative stereo) [Compound 578], the logP [1] is reported as 3.43^[b].

For O=C(N[C@@H]1CC[C@@H]1c1ccc(Cl)cc1C(F)(F)F)c1c(F)cccc1F (relative stereo) [Example 702], the logP [3] was 3.52^[b].

In the case of O=C(NC1CCCCC1c1ccccc1Br)c1c(F)cccc1F (centres unmarked) [Example 404], the logP [1] is reported as 3.78^[b].

In the case of O=C(NC1CCC1c1ccccc1C(F)(F)F)c1ccccc1I (centres unmarked) [Example 428], the logP [1] is reported as 3.42^[b].

With O=C(NC1CCCCC1c1c(F)cccc1F)c1c(F)cccc1F (centres unmarked) [Example 395] the logP [1] was 3.44^[b].

O=C(N[C@@H]1C[C@]1(F)c1ccc(Cl)cc1)c1c(F)cccc1F (relative stereo) [Compound 750, rel-N-[(1R,2S)-2-(4-chlorophenyl)-2-fluorocyclopropyl]-2,6-difluorobenzamide] gave a chromatographic logP (HPLC-MS, method [b]: pH 2.7, 0.1% formic acid / acetonitrile; read-out: log P^b)) of 2.69.

For O=C(N[C@@H]1CC[C@H]1c1ccc(Cl)cc1C(F)(F)F)c1ccccc1C(F)(F)F (relative stereo) [Example 703], the logP [3] was 4.10^[b].

For O=C(NC1CCCC1c1ccccc1Br)c1ccccc1C(F)(F)F (centres unmarked) [Example 355], the logP [1] was 3.71^[b].

With CC(C)Oc1nn(C)cc1C(=O)N[C@@H]1CCC[C@@H]1c1ccc(F)c(F)c1 (relative stereo) [Example 118] the logP [2] was 3.27^[b].

With Cc1ccsc1C(=O)N[C@@H]1CCC[C@H]1c1ccc(F)c(F)c1 (relative stereo) [Example 136] the logP [5] was 3.46^[b].

For O=C(N[C@@H]1CC[C@@H]1c1ccccc1C(F)(F)F)c1sccc1I (relative stereo) [Example 636], the logP [3] was 3.83^[b].

In the case of O=C(N[C@@H]1C[C@@H]1c1ccc(Cl)cc1Cl)c1c(F)cccc1F (relative stereo) [Compound 581], the logP [1] is reported as 3.44^[b].

Work on O=C(N[C@@H]1CC[C@@H]1c1c(Cl)cccc1Cl)c1ccc(Cl)cc1Cl [Example 741] yielded a chromatographic logP [6] of 4.1.

In the case of O=C(N[C@@H]1CCC[C@@H]1c1ccccc1F)c1ccccc1I (relative stereo) [Example 332], the logP [1] is reported as 3.30^[b] and the logP [4] is reported as 3.28^[c];.

With O=C(N[C@@H]1CC[C@@H]1c1cc(F)ccc1C(F)(F)F)c1ncc(C(F)(F)F)cc1Cl (relative stereo) [Example 529] the logP [1] was 3.91^[b].

For Cn1nc(C(F)(F)F)c(C(=O)N[C@@H]2CCC[C@@H]2c2ccc(F)c(F)c2)c1F (relative stereo) [Example 122], the logP [2] was 3.27^[b].

In the case of Cn1cc(C(=O)N[C@@H]2CC[C@@H]2c2cccc(F)c2C(F)(F)F)c(C(F)F)n1 (relative stereo) [Example 643], the logP [3] is reported as 2.75^[b].

With O=C(NC1CCCCC1c1ccc(Cl)cc1Cl)c1ccccc1I (centres unmarked) [Example 415] the logP [1] was 4.57^[b].

With O=C(N[C@@H]1CCC[C@@H]1c1ccc(F)c(F)c1)c1c(Cl)ccnc1Cl (relative stereo) [Example 120] the logP [2] was 3.02^[b].

In the case of O=C(N[C@@H]1C[C@]1(F)c1ccc(Cl)cc1)c1ccccc1I [Example 753], the chromatographic logP [6] is reported as 2.98.

In the case of O=C(NC1CC1c1ccccc1)c1ccccc1C(F)(F)F (centres unmarked) [Example 40], the logP [2] is reported as 2.79^[b].

For Cn1cc(C(=O)N(C2CC2)C2CCCCC2c2ccccc2)c(C(F)(F)F)c1 (centres unmarked) [Example 140], the logP [5] was 3.90^[b].

With Cc1nc(C(F)F)c(C(=O)N(C2CC2)C2CCCCC2c2ccccc2)s1 (centres unmarked) [Example 141] the logP [5] was 4.18^[b].

For Cn1cc(C(=O)N[C@@H]2CCC[C@H]2c2ccc(F)c(F)c2)c(=O)[nH]1 (relative stereo) [Example 135], the logP [5] was 2.18^[b].

In the case of O=C(N[C@@H]1C[C@@H]1c1ccc(Cl)cc1)c1c(F)cccc1F (relative stereo) [Example 268], the logP [1] is reported as 2.64^[b] and the logP [4] is reported as 2.59^[c];.

In the case of O=C(N[C@@H]1CC[C@H]1c1cccc(F)c1C(F)(F)F)c1ccccc1[N+](=O)[O-] (relative stereo) [Example 629], the logP [3] is reported as 3.18^[b].

For O=C(NC1CC1c1ccccc1Cl)c1ccccc1I (centres unmarked) [Example 229], the logP [5] was 3.14^[b].

In the case of O=C(N[C@@H]1CC[C@H]1c1ccc(F)cc1C(F)(F)F)c1nccnc1Cl (relative stereo) [Example 525], the logP [1] is reported as 3.16^[b].

In the case of O=C(NC1CC1c1ccccc1)c1ccncc1 (centres unmarked) [Example 39], the logP [2] is reported as 1.30^[b].

For O=C(NC1CCCC1c1c(F)cccc1F)c1ccccc1C(F)(F)F (centres unmarked) [Compound 323], the logP [1] was 3.43^[b].

With CCc1nn(C)c(F)c1C(=O)N(C1CC1)C1CCCC1c1ccc(Cl)cc1Cl (centres unmarked) [Example 160] the logP [5] was 4.65^[b].

For CCn1nc(C)c(C(=O)N[C@@H]2CCC[C@@H]2c2ccc(F)c(F)c2)c1F (relative stereo) [Example 84], the logP [2] was 2.92^[b].

In the case of CCOc1nn(C)cc1C(=O)N[C@@H]1CCC[C@@H]1c1ccc(F)c(F)c1 (relative stereo) [Example 54], the logP [2] is reported as 2.78^[b].

In the case of O=C(N[C@@H]1CCC[C@H]1c1ccc(F)c(F)c1)c1ccccc1F (relative stereo) [Example 105], the logP [2] is reported as 3.35^[b].

In the case of O=C(N[C@@H]1CC[C@@H]1c1ccc(Br)cc1C(F)(F)F)c1ccccc1C(F)(F)F (relative stereo) [Example 656], the logP [3] is reported as 4.02^[b] and the logP [7] is reported as 3.94^[c];.

For O=C(N[C@@H]1CCC[C@@H]1c1ccccc1F)c1nccnc1C(F)(F)F (relative stereo) [Example 341], the logP [1] was 3.00^[b] and the logP [4] was 2.94^[c];.

In the case of O=C(NC1CCC1c1ccccc1C(F)(F)F)c1nccnc1C(F)(F)F (centres unmarked) [Example 687], the logP [3] is reported as 3.31^[b] and the logP [7] is reported as 3.25^[c];.

With O=C(N[C@@H]1CCC[C@@H]1c1ccc(F)c(F)c1)c1cccnc1F (relative stereo) [Example 68] the logP [2] was 2.76^[b].

O=C(N[C@@H]1CC[C@@H]1c1c(Cl)cccc1Cl)c1ncc(C(F)(F)F)cc1Cl [Example 744] showed a chromatographic logP [6] of 4.28.

O=C(N[C@@H]1C[C@]1(F)c1ccc(Cl)cc1)c1ccccc1Cl [Example 752] showed a chromatographic logP [6] of 2.78.

For O=C(NC1CCC1c1ccccc1Cl)c1ccccc1 (centres unmarked) [Example 447], the logP [1] was 3.14^[b].

For O=C(NC1CC1c1ccc(Cl)cc1)c1sccc1I (centres unmarked) [Example 202], the logP [5] was 3.56^[b] and the logP [8] was 3.50^[c];.

For O=C(NC1CCC1c1ccc(Cl)cc1C(F)(F)F)c1cccnc1C(F)(F)F (centres unmarked) [Example 721], the logP [2] was 3.36^[b].

With O=C(N[C@@H]1CC[C@@H]1c1cccc(F)c1C(F)(F)F)c1cccc(Cl)c1 (relative stereo) [Example 597] the logP [3] was 3.50^[b].

With O=C(N[C@@H]1CC[C@H]1c1cccc(F)c1C(F)(F)F)c1ccccc1C(F)(F)F (relative stereo) [Example 588] the logP [1] was 3.63^[b].

In the case of O=C(N[C@@H]1CC[C@H]1c1ccccc1Cl)c1c(F)cccc1F (relative stereo) [Example 243], the logP [1] is reported as 3.11^[b].

In the case of O=C(N[C@@H]1CC[C@H]1c1ccc(F)cc1C(F)(F)F)c1ccccc1 (relative stereo) [Example 504], the logP [1] is reported as 3.42^[b].

With O=C(N[C@@H]1CC[C@H]1c1ccc(Cl)cc1C(F)(F)F)c1ccccc1 (relative stereo) [Example 679] the logP [3] was 3.87^[b].

In the case of Cc1nn(C)c(C)c1C(=O)NC1CC1c1ccc(Cl)cc1 (centres unmarked) [Example 13], the logP [2] is reported as 2.89^[b].

In the case of O=C(NC1CC1c1ccc(Cl)cc1)c1sccc1Cl (centres unmarked) [Compound 203], the logP [5] is reported as 3.51^[b] and the logP [8] is reported as 3.45^[c];.

In the case of O=C(N[C@@H]1CC[C@@H]1c1cc(F)ccc1C(F)(F)F)c1ccc(Cl)cc1 (relative stereo) [Example 527], the logP [1] is reported as 3.63^[b].

With O=C(N[C@@H]1CC[C@@H]1c1c(F)cccc1F)c1ncccc1Cl (relative stereo) [Compound 438] the logP [1] was 2.73^[b].

In the case of O=C(N[C@@H]1CC[C@H]1c1cccc(F)c1C(F)(F)F)c1ncccc1Cl (relative stereo) [Example 616], the logP [3] is reported as 3.30^[b].

In the case of Cc1nn(C)c(F)c1C(=O)N(C1CC1)C1CCCCC1c1ccc(Cl)cc1Cl (centres unmarked) [Example 165], the logP [5] is reported as 4.59^[b].
